Experimental data: US20190017017A1, “USE OF VASCULAR CELLS TO CREATE THE CONVENTIONAL OUTFLOW TRACT” (THE RESEARCH FOUNDATION FOR THE STATE UNIVERSITY OF NEW YORK, priority 2016, published 2019)

Tests used:
HTM cells = assay: Outflow facility of porous scaffolds bearing cultured HTM cells (perfusion); assay type: cell-based, human; details: FIG. 15
Excerpt: TM cells and SC cell-like cells co-cultured on a porous scaffold in accordance with aspects of the present disclosure may serve as a system to model conventional outflow tract function, physiology, and pathophysiology. FIG. 13A is a diagrammatic representation of a testing apparatus for performing perfusion-related testing in accordance with aspects of the present disclosure. A syringe pump or other pressure source may feed into a holder for a porous scaffold, with TM and SC cell-like cells co-cultured thereupon, with pressure controlled and measured by a pressure transducer. The pressure across the porous scaffold and cells, and other aspects related to pressure such as through-flow, flow rate, resistance to flow, hydraulic conductivity, and other indicia of conventional outflow tract function may be measured. For example, fluids can be perfused across the co-culture-bearing scaffold and aspects of fluid mechanics measured as an indication of conventional outflow tract function. […] Aspects of membrane pressure, outflow dynamics, and cellular function can similarly be measured under different conditions known or hypothesized to replicate disease states, or lack thereof, or conditions known or believed to prevent, ameliorate, or cure disease or pathological states. In an example, fluid may be perfused across a porous scaffold bearing co-cultured TM and SC cell-like cells and effects of transmembrane pressure, flow rate, through-flow, resistance to flow, hydraulic conductivity, vacuole dynamics, pore formation, or outflow facility of the co-cultured TM cells and SC cell-like cells may be measured. […] Other aspects of cellular physiology or function may similarly be measured, in response or relation to perfusion or otherwise. […]
A perfusion apparatus was used as described in publicly available literature and in accordance with the apparatus illustrated in FIG. 13. […] Vacuole/pore size were measured using the embedded LEO electron microscopy image software. […]

HTM/HMVEC constructs = assay: qPCR and western blot of outflow pathway markers in co-cultured constructs exposed to pharmacologic agents; assay type: cell-based, human; details: qPCR and western blotting; FIGS. 14A-E
Procedure: Total RNA was extracted from samples using an RNeasy Plus Mini kit (Qiagen Inc., Valencia, Calif.). RNA concentrations were determined using a NanoDrop spectrophotometer. 50 ng of RNA per sample was used for each qPCR experiments. qPCR was carried out using TAQMAN RNA-TO-CT™ 1-Step Kit (Applied Biosystems, Carlsbad, Calif.) and performed on an AB StepOnePlus Real Time PCR system (Life Technologies, Carlsbad, Calif.) using primers for αB-crystallin, PECAM-1, fibulin-2, collagen type IV, fibronectin, laminin and GAPDH.
The temperature profile was as follows: 48° C. for 15 min (reverse transcription step), followed by an enzyme activation step of 95° C. for 10 min, 40 cycles of 15 s denaturation at 95° C. and 1 min anneal/extend at 60° C. Relative quantitation data analysis was performed using the comparative quantification method, ΔΔCt, with GAPDH as the endogenous reference. […]
FIGS. 14A-E show gene (left panels, qPCR) and protein (right, western blots) expression patterns of co-cultured HTM/HVEC constructs. HTM-HMVEC and HTM-HSC constructs were contacted with pharmacologic agents that regulate outflow and expression levels of various genes and proteins (α-SMA, collagen IV, fibronectin, myocillin) measured by qPCR and western blotting. […]

| Molecule | effect on outflow facility (HTM cells) | response (expression of α-SMA, collagen IV, fibronectin, myocillin) of HTM-HMVEC constructs compared with HTM-HSC constructs (HTM/HMVEC constructs) |
| --- | --- | --- |
| CC(=O)OCC(=O)[C@@]1(O)CC[C@H]2[C@@H]3CCC4=CC(=O)C=C[C@]4(C)[C@H]3C(=O)C[C@@]21C [prednisone acetate] | inhibit | – |
| C[C@@H](N)[C@H]1CC[C@H](C(=O)Nc2ccncc2)CC1 [Y27632] | stimulate | responds similar |
| TGFβ | inhibit | responds similar |
